Tested on: SARS-CoV-2
Assay: Antiviral activity against SARS-CoV-2 pseudotyped lentivirus infected in HEK293 cells overexpressing EGFP-fused hACE2 coexpressing mCherry assessed as reduction in virus entry incubated for 40 mins by immunocytochemistry assay
Assay type: functional, organism-based
Settings: Severe acute respiratory syndrome coronavirus 2, HEK293, 40 min

Compound | EC50
C=C[C@@](C)(/C=C/c1ccc(O)cc1)CCC=C(C)C [BAKUCHIOL] | 110 µM
CC(C)=CCc1c(O)ccc(C(=O)/C=C/c2ccc(O)cc2)c1O [ISOBAVACHALCONE] | 51.5 µM
